In one series the test system is LDL particle size. To be noted: pattern B <25.75 nm, I 25.75-26.34 nm, A >26.34 nm; US 2010-0152295; cited from earlier work.
The test system of series [1] is subjects with mixed dyslipidemia. As to conditions: cited from earlier work; for reduction of LDL-C: 100 mg/day; for reduction of alkaline phosphatase: control group 4%.
In series [2] the test system is knockout mice lacking LDLR. The series can be described thus: Lipid lowering in knockout mice lacking LDLR. In kind it is in vivo.
For series [3], the target named is T1, peroxisome proliferator-activated receptor-δ (PPARδ) (Homo sapiens, UniProt Q03181).
T1 sequence (Q03181 1-441): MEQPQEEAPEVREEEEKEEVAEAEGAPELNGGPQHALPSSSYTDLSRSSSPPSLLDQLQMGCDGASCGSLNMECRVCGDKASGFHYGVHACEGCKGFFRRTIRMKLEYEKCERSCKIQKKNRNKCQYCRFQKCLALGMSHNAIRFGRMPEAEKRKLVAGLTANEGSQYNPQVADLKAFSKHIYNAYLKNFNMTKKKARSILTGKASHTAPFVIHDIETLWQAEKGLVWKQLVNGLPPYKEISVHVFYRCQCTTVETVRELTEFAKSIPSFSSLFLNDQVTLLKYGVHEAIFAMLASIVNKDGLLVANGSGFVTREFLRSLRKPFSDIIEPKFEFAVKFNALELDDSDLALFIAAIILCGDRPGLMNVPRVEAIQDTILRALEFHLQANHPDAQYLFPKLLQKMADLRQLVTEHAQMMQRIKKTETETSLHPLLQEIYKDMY
The series can be described thus: PPARδ agonist potency. In kind it is biochemical. The text has this:
(§1) PPARδ activation stimulates fatty acid oxidation and utilization, improves plasma lipid and lipoprotein metabolism, glucose utilization, and mitochondrial respiration, and preserves stem cell homeostasis.

Another series addresses T2, PPARα (Homo sapiens, UniProt Q07869).
T2 sequence (Q07869 1-468): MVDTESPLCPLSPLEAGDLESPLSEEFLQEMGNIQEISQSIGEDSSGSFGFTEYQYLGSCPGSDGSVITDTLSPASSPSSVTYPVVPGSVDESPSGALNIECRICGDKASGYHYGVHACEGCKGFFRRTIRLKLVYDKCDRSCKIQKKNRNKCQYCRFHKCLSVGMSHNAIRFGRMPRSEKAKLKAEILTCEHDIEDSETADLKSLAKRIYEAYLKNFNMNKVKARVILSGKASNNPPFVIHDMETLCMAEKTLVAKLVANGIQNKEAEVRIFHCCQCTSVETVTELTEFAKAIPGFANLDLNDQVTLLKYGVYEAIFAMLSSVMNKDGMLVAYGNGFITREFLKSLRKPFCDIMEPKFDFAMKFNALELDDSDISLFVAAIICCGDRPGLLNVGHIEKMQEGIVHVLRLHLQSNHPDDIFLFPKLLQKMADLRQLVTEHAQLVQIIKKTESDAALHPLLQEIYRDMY
The series can be described thus: Specificity for PPARδ compared with PPARα. The format is biochemical.
Source text: as §1

A further series deals with subjects with HoFH. The series can be described thus: Example 1: study with MBX-8025 in HoFH. As to conditions: MBX-8025 L-lysine dihydrate salt 50, 100, or 200 mg/day. In kind it is in vivo, human. As to the method: Subjects are permitted their usual other medications, including lipid-lowering treatments. […] MRIs of the subjects' livers are taken every 4 weeks during the study and 4 weeks after study completion, to determine hepatic fat. At each visit, after a 12-hour fast, blood is drawn and urine collected; and a standard metabolic panel, complete blood count, and standard urinalysis are performed. Blood is analyzed for TC, HDL-C, LDL-C, VLDL-C, TG, and apoB. The subjects also maintain health diaries, which are reviewed at each visit.

The subject of series [4] is patients with HoFH. To be noted: cited from earlier work.
In series [5] the test system is healthy volunteers with hypercholesterolemia. To be noted: cited from earlier work.
Series [6] has as its system patients with HeFH. As to conditions: cited from earlier work.
For series [7], the system named is patients with hypercholesterolemia. As to conditions: week 12; sc 50, 100, 150 mg twice monthly or 200, 300 mg once monthly; cited from earlier work.
The subject of series [8] is patients with HoFH. As to conditions: added to maximally tolerated lipid lowering medications in HoFH patients; cited from earlier work.
For series [9], the system named is patients with HoFH, HeFH, severe hyperlipidemia, high-risk coronary heart disease. As to conditions: human, in vivo; cited from earlier work.
In another series the test system is apoB mRNA. To be noted: HepG2, Hep3B, human and cynomolgus monkey primary hepatocytes; cited from earlier work.
For series [10] the following is noted: in vivo, cited from earlier work.
Series [11] concerns hypercholesterolemic subjects. To be noted: cited from earlier work.
The subject of series [12] is patients with HeFH. To be noted: cited from earlier work. The source holds these as a separate data set.
Setting [13] is: alone and in combination with atorvastatin, 8 weeks.

Read-outs that look alike come from different tables or passages of the source.

For the molecule `CCO[C@H](COc1ccc(C(F)(F)F)cc1)CSc1ccc(OCC(=O)O)c(C)c1` [MBX-8025, (R)-2-(4-((2-ethoxy-3-(4-(trifluoromethyl)phenoxy)propyl)thio)-2-methylphenoxy)acetic acid], the “LDL particle size pattern conversion” value with LDL particle size is “converts LDL particle size pattern I to pattern A; and from pattern B to pattern I or A”. Also, the “reduction of LDL-C” value in series [1] (tertile with the highest starting LDL-C levels (187-205 mg/dL)) is listed as 35%. Besides, in series [1] (total population treated), the “reduction of LDL-C” value is on record as 22%. Moreover, in series [1] (8 weeks), the “decrease of LDL-S/VS” value is listed as 40-48% and the “increase of LDL-L” value was 34-44%. Moreover, the “reduction of apoB 100 compared to placebo” value in series [1] (MBX-8025 50 or 100 mg alone and in combination with atorvastatin 20 mg, 8 weeks) is reported as 20-38%. In [1] (setting [13]), the “raising of HDL-C” value is 1-12%, the “reduction of LDL compared to placebo” value was 18-43%, the “reduction of free fatty acids compared to placebo” value was 16-28% and the “reduction of high-sensitivity C-reactive protein compared to placebo” value was 43-72%. In series [1] (setting [13]), the “reduction of non-HDL-C compared to placebo” value is recorded as 18-41% and the “reduction of triglycerides compared to placebo” value is on record as 26-30%. Further, the “reduction of γ-glutamyl transpeptidase” value in [1] (control group 3%) is listed as 24-28%. For the same molecule, in series [1], the “reduction of alkaline phosphatase” value is 32-43%. In addition, in [1] (in vivo), the “insulin sensitivity (HOMA-IR, fasting plasma glucose, insulin)” value is recorded as “increases insulin sensitivity”; the “reduction of the percentage of subjects meeting the criteria for metabolic syndrome” value was greater than 2 fold; the safety and tolerability result is “safe and generally well-tolerated”; the serum aminotransferases result was “reducing serum aminotransferases”. The “waist circumference and lean body mass” value in series [1] (in vivo) was “trends towards a decrease in waist circumference and increase in lean body mass”. In series [2], the “LDLR dependence of LDL-C lowering” value is “do not require an effective LDLR to lower LDL-C and improve other lipid parameters”. In addition, the concentration for a half-maximal effect (EC50) in series [3] was found to be 2 nM. Besides, the “specificity for PPARδ compared with PPARα” value on PPARα is greater than 600 fold. Further, the “effect on TC, LDL-C, VLDL-C, TG, apoB and HDL-C” value with subjects with HoFH is “dose-dependent lowering of TC, LDL-C, VLDL-C, TG and apoB, and raising of HDL-C”.

For `CC(C)c1c(C(=O)Nc2ccccc2)c(-c2ccccc2)c(-c2ccc(F)cc2)n1CC[C@@H](O)C[C@@H](O)CC(=O)O` [atorvastatin, reference compound], in series [1] (8 weeks), the “decrease of LDL-L” value is reported as 30%, the “decrease of LDL-S/VS” value is on record as 25% and the “increase of γ-glutamyl transpeptidase” value is recorded as 2%. Besides, the “reduction of alkaline phosphatase” value in series [1] is recorded as 6%.

With `O=C(NC1CCN(CCCCC2(C(=O)NCC(F)(F)F)c3ccccc3-c3ccccc32)CC1)c1ccccc1-c1ccc(C(F)(F)F)cc1` [lomitapide, N-(2,2,2-trifluoroethyl)-9-(4-(4-(4′-(trifluoromethyl)-[1,1′-biphenyl]-2-ylcarboxamido)piperidin-1-yl)butyl)-9H-fluorene-9-carboxamide], the “patients reporting gastrointestinal adverse reactions” value in the series on patients with HoFH [4] (27 of 29 patients, Phase 3 trial) is 93%. The “patients reporting vomiting, dyspepsia and abdominal pain (each)” value in the series with patients with HoFH [4] (AEs reported by 8 or more of 29 patients) is reported as no less than 28%. Also, in the series with patients with HoFH [4] (Phase 3 trial, 29 patients), the patients reporting diarrhea is 79% and the patients reporting nausea is on record as 65%. Moreover, the “patients who discontinued the trial for AEs” value with patients with HoFH [4] (of the 29 patients) is on record as “Five”. For the same molecule, in [5], the “reduction of LDL-C” value is given as “up to 65%”.

Regarding Alirocumab: anti-PCSK9 antibody, the “reduction in LDL-C” value in the series with patients with HeFH [6] (150 mg/2 weeks sc) is 68%; in the series on patients with HeFH [6] (150 mg/4 weeks sc), 29%. In addition, the tolerability entry in the series with patients with HeFH [6] (in vivo) is “well tolerated”.

Consider Bococizumab: anti-PCSK9 antibody, for which, in series [7], the “effect on LDL-C” value is “significant reductions in LDL-C at week 12”.

For the molecule mipomersen, the “reduction of LDL-C” value in the series on patients with HoFH [8] is 25%. In addition, in series [9], the “alanine aminotransferase ≧3× upper limit of normal” value was 10%; the “aspartate aminotransferase ≧3× upper limit of normal” value is listed as 16%; the “flu-like symptoms (such as fatigue, fever, and chills)” value is 30%; the injection site reactions is reported as 84%. In series [9], the “patients who discontinued for an adverse event or serious adverse event” value is recorded as 18%, the “patients who discontinued for other reasons” value is listed as 4% and the “patients who discontinued for patient withdrawal” value is listed as 6%. For the same molecule, the “effect on apoB mRNA, protein, and secreted protein” value in the series on apoB mRNA was “selectively reduced apoB mRNA, protein, and secreted protein in a concentration- and time-dependent manner”. Further, in series [10] (sc), the “absorption time to maximum concentration” value was 3 to 4 h, the distribution half-life is 2 to 5 h and the elimination half-life is recorded as 1-2 months. For the same molecule, the “time to steady-state plasma trough” value in [10] is on record as no more than 6 months.

B1: evolocumab: anti-PCSK9 antibody (antibody, chains of the INN, looked up, V domains shown)
VH: EVQLVQSGAEVKKPGASVKVSCKASGYTLTSYGISWVRQAPGQGLEWMGWVSFYNGNTNYAQKLQGRGTMTTDPSTSTAYMELRSLRSDDTAVYYCARGYGMDVWGQGTTVTVSS
VL: ESALTQPASVSGSPGQSITISCTGTSSDVGGYNSVSWYQQHPGKAPKLMIYEVSNRPSGVSNRFSGSKSGNTASLTISGLQAEDEADYYCNSYTSTSMVFGGGTKLTVL
In the case of B1, the “reduction of LDL-C levels” value in series [11] is “more than 50%”. Moreover, the “effect on LDL-C relative to placebo” value in the series with patients with HeFH [12] (140 mg every 2 weeks or 420 mg every month sc) is “Significant reductions in LDL-C”. Moreover, in the series with patients with HeFH [12] (in vivo), the “muscle-related AEs” value is 5%, the nasopharyngitis is recorded as 9% and the tolerability entry is “well tolerated”.

As usually defined, the EC50 is the concentration giving half of the maximal effect.

Values taken from patent US20150139987A1, “TREATMENT OF HOMOZYGOUS FAMILIAL HYPERCHOLESTEROLEMIA” (CymaBay Therapeutics, Inc., priority 2013, published 2015).
